Several values for one entry are separate records, joined by “and”; a condition that tells them apart may be missing. Identical values can stand only once. Like-named read-outs stand apart in the source and are kept apart here.
What was measured:
[1] = test system: C. elegans; assay: C. elegans chemical screens of RIKEN NPD libraries at 50 μM (hit identification in KCN survival and development/viability assays); format: cell-based, Caenorhabditis elegans; conditions: screened at 50 μM in triplicate; […]; KCN = KCN survival assay, Dev. & Viability = development/viability assay
[2] = test system: L1 wild-type C. elegans; assay: whole plant or invertebrate; conditions: Caenorhabditis elegans, 15 h
[3] = test system: L1 wild-type C. elegans; assay: 15-hour motility assay with drug alone (no KCN); format: cell-based, Caenorhabditis elegans; conditions: without KCN, 15-hour; for Value relative to DMSO control, drug alone (without KCN), Mean: mean of replicates; for Value relative to DMSO control, drug alone (without KCN): single replicates
[4] = test system: L1 wild-type C. elegans; conditions: drug + KCN, 15-hour; for KCN survival assay value relative to DMSO control, Mean: mean of replicates; for KCN survival assay value relative to DMSO control: single replicates

CCCC/C=C\C/C=C\CCCCCCCCc1cccc(O)c1C(=O)O [6-heptadeca-9Z,12Z-dienyl salicylic acid]
Hit Type [1]: KCN
LC50 ([2]; read-out: C. elegans KCN Survival Assay LC50): 3970 nM

Cc1cc(C(C#N)c2ccc(Cl)cc2)c(Cl)cc1NC(=O)c1cc(I)cc(I)c1O (stereo not drawn) [Closantel]
Value relative to DMSO control, drug alone (without KCN), Mean ([3]; 0.025 µM): 1.096
Value relative to DMSO control, drug alone (without KCN) ([3]; 0.025 µM): 1.270 and 1.000 and 1.019
Value relative to DMSO control, drug alone (without KCN), Mean ([3]; 0.05 µM): 0.995
Value relative to DMSO control, drug alone (without KCN) ([3]; 0.05 µM): 1.190 and 0.812 and 0.983
Value relative to DMSO control, drug alone (without KCN), Mean ([3]; 0.1 µM): 0.999
Value relative to DMSO control, drug alone (without KCN) ([3]; 0.1 µM): 1.131 and 0.827 and 1.040
Value relative to DMSO control, drug alone (without KCN), Mean ([3]; 0.2 µM): 1.003
Value relative to DMSO control, drug alone (without KCN) ([3]; 0.2 µM): 1.030 and 1.024 and 0.957
Value relative to DMSO control, drug alone (without KCN), Mean ([3]; 0.4 µM): 0.958
Value relative to DMSO control, drug alone (without KCN) ([3]; 0.4 µM): 1.006 and 0.910 and 0.957
Value relative to DMSO control, drug alone (without KCN), Mean ([3]; 0.8 µM): 1.081
Value relative to DMSO control, drug alone (without KCN) ([3]; 0.8 µM): 1.194 and 1.047 and 1.003
Value relative to DMSO control, drug alone (without KCN), Mean ([3]; 3.1 µM): 0.969
Value relative to DMSO control, drug alone (without KCN) ([3]; 3.1 µM): 1.240 and 0.805 and 0.863
Value relative to DMSO control, drug alone (without KCN), Mean ([3]; 6.3 µM): 1.048
Value relative to DMSO control, drug alone (without KCN) ([3]; 6.3 µM): 1.218 and 0.919 and 1.007
Value relative to DMSO control, drug alone (without KCN), Mean ([3]; 12.5 µM): 1.059
Value relative to DMSO control, drug alone (without KCN) ([3]; 12.5 µM): 1.241 and 0.872 and 1.065
Value relative to DMSO control, drug alone (without KCN), Mean ([3]; 25 µM): 0.703
Value relative to DMSO control, drug alone (without KCN) ([3]; 25 µM): 0.678 and 0.775 and 0.655
KCN survival assay value relative to DMSO control, Mean ([4]; 0.025 µM): 0.976
KCN survival assay value relative to DMSO control ([4]; 0.025 µM): 0.959 and 0.928 and 1.042
KCN survival assay value relative to DMSO control, Mean ([4]; 0.05 µM): 0.987
KCN survival assay value relative to DMSO control ([4]; 0.05 µM): 1.068 and 0.937 and 0.955
KCN survival assay value relative to DMSO control, Mean ([4]; 0.1 µM): 0.937
KCN survival assay value relative to DMSO control ([4]; 0.1 µM): 0.967 and 0.903 and 0.941
KCN survival assay value relative to DMSO control, Mean ([4]; 0.2 µM): 0.886
KCN survival assay value relative to DMSO control ([4]; 0.2 µM): 1.054 and 0.849 and 0.755
KCN survival assay value relative to DMSO control, Mean ([4]; 0.4 µM): 0.363
KCN survival assay value relative to DMSO control ([4]; 0.4 µM): 0.480 and 0.444 and 0.164
KCN survival assay value relative to DMSO control, Mean ([4]; 0.8 µM): 0.018
KCN survival assay value relative to DMSO control, Mean ([4]; 3.1 µM): 0.000
KCN survival assay value relative to DMSO control, Mean ([4]; 6.3 µM): 0.000
KCN survival assay value relative to DMSO control ([4]; 6.3 µM): 0.000
KCN survival assay value relative to DMSO control, Mean ([4]; 12.5 µM): 0.0065
KCN survival assay value relative to DMSO control, Mean ([4]; 25 µM): 0.0037
LC50 ([2]; read-out: C. elegans KCN survival assay LC50): 332 nM

— article PMC11079024, “Identification of a family of species-selective complex I inhibitors as potential anthelmintics” (Nature Communications, 2024)
